Results: publication PMC9095466 (Nature, 2022)
pEC50, pKi: −log10 of the molar value. Values joined by “and” are separate entries in the source; they are usually repeats but may differ in a detail not shown here. Equal values may be shown once. Read-outs that look alike come from different tables or passages of the source.

Columns and labels:
Recombinant human furin = biological target: T1, Recombinant human furin (Homo sapiens, UniProt P09958); assay: Protease selectivity, Ki on recombinant protease; format: biochemical; details: single experiments N1-N3; Figure 1D; read-out: Individual Ki, Furin
T1 construct: purchased Bio-Techne

human cathepsin L = biological target: T2, human cathepsin L (Homo sapiens, UniProt P07711); assay: Protease selectivity, Ki on protease; format: biochemical; details: single experiments N1-N4; Figure 1D; read-out: Individual Ki, Cathepsin L
T2 construct: purchased Bio-Techne

human thrombin = biological target: T3, human thrombin (Homo sapiens, UniProt P00734); assay: Protease selectivity, Ki on protease; format: biochemical; details: single experiments N1-N3; Figure 1D; read-out: Individual Ki, Thrombin
T3 construct: purchased MilliporeSigma

[1] = biological target: T4, Recombinant human matriptase (Homo sapiens, UniProt Q9Y5Y6); assay: Protease selectivity, Ki on recombinant protease; format: biochemical; details: single experiments N1-N3; Figure 1D; read-out: Individual Ki, Matriptase
T4 construct: made in house
T4 sequence (Q9Y5Y6 1-855): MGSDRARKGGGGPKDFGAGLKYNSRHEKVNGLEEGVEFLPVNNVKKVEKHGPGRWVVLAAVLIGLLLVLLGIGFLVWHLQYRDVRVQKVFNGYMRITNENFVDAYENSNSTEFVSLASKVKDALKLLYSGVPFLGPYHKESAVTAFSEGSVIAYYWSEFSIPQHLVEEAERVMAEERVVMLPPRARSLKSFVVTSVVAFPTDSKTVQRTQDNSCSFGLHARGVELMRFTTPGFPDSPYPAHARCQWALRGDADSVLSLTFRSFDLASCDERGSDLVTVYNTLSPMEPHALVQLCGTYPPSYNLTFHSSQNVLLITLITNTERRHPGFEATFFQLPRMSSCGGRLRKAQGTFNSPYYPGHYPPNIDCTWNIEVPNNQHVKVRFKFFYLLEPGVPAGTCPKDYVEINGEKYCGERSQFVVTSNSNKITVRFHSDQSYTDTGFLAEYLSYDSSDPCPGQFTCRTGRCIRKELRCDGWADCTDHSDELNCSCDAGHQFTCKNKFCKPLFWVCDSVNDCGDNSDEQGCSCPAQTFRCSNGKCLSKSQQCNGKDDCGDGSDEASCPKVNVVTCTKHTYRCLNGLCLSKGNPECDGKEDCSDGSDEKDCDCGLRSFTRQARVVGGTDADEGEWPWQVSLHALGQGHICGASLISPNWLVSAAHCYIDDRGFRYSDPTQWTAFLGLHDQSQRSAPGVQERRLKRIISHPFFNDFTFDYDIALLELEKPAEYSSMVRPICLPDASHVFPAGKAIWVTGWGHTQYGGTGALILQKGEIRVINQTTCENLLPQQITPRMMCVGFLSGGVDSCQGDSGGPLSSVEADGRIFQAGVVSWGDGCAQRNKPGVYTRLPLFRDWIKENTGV

Recombinant human hepsin = biological target: T5, Recombinant human hepsin (Homo sapiens, UniProt P05981); assay: Protease selectivity, Ki on recombinant protease; format: biochemical; details: single experiments N1-N3; Figure 1D; read-out: Individual Ki, Hepsin
T5 construct: made in house

Recombinant human DESC1 = biological target: T6, Recombinant human DESC1 (Homo sapiens, UniProt Q9UL52); assay: Protease selectivity, Ki on recombinant protease; format: biochemical; details: single experiments N1-N3; Figure 1D; read-out: Individual Ki, Desc1
T6 construct: made in house
T6 sequence (Q9UL52 1-423): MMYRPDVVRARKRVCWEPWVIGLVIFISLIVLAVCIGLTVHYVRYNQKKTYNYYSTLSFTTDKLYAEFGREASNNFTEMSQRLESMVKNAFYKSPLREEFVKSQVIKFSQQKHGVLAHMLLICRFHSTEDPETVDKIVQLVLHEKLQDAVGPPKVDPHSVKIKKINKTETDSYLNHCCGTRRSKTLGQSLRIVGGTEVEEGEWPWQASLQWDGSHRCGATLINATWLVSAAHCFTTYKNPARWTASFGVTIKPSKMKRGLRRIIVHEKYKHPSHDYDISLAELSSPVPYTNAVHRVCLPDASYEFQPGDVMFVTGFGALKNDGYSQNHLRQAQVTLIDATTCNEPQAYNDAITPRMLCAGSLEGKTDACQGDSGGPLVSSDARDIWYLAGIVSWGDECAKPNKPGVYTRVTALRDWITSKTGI

SARS-CoV-2 (VIDO) [2] = assay: microbe, parasite or virus in culture; format: cell-based; details: Severe acute respiratory syndrome coronavirus 2; colonoids pretreated 3 h with 100 nM, infected 3 days, vs DMSO-treated; read-out: inhibition of SARS-CoV-2 infection in colonoids
[3] = test system: SARS-CoV-2 lineage B strain (VIDO); assay: microbe, parasite or virus in culture; format: cell-based
[4] = test system: SARS-CoV-2 (USA-WA1/2020, lineage A); assay: K18-hACE2 mouse model of SARS-CoV-2, IHC of nucleocapsid with digital image analysis; format: in vivo, K18-hACE2 mice; details: individual mice, 8-day regimen, tissue at death or end-point
Description: To detect viral antigen, sections were labelled with anti-SARS-CoV-2 nucleocapsid protein rabbit IgG monoclonal antibody (GeneTex; GTX635679) at a 1:5,000 dilution and processed using a Leica Bond Max automated IHC stainer. Leica Bond Polymer Refine Detection (Leica; DS9800) with DAB was used as the chromogen. Image acquisition was performed using a Roche Ventana DP200 slide scanner. Digital image analysis was performed using QuPath software[65],[66] v.0.2.3. Tissues were annotated to include all available lung tissue or all brain tissue excluding cerebellum, as cerebellar tissue was not available for all mice. Following annotation, automated detection was performed using automated SLIC superpixel segmentation with a DAB mean detection threshold of 0.18892.

human TMPRSS2 = human TMPRSS2 (Homo sapiens, UniProt O15393); assay: cell-based; details: cells treated with up to 10 μM
[5] = test system: SARS-CoV-2 (USA-WA1/2020, lineage A); assay: K18-hACE2 mouse model of SARS-CoV-2, H&E histopathology of lung and brain; details: 8-day regimen
Description: For histological examination, mouse lungs and brains were collected directly after euthanasia and placed in 10% formalin for more than 72 h, after which tissues were embedded in paraffin. Tissue sections (4 μm) were analysed after staining with H&E and scored blinded by an anatomic pathologist. For lung, scores were applied based on the percentage of each tissue type (alveolus, vessels and so on) affected using the following criteria: (0) normal; (1) less than 10% affected; (2) 10–25% affected; (3) 26–50% affected; and (4) more than 50% affected[64]. Assessment of lung pathology in K18-hACE2 mice infected with the SARS-CoV-2 B.1.617.2 (Delta) VOC after single-dose treatment was performed on IHC sections counterstained with haematoxylin. For brains, histological scoring was assessed for perivascular inflammation using the most severely affected vessel and the following criteria: (0) no perivascular inflammation; (1) incomplete cuff one cell layer thick; (2) complete cuff one cell layer thick; (3) complete cuff two to three cells thick; and (4) complete cuff four or more cells thick. Necrotic cells in the neuroparenchyma were assessed per 0.237 mm^2 field using the most severely affected area and the following criteria: (0) no necrotic cells; (1) rare individual necrotic cells; (2) fewer than 10 necrotic cells; (3) 11 to 25 necrotic cells; (4) 26 to 50 necrotic cells; and (5) greater than 50 cells.

SARS-CoV-2 (VIDO) [6] = format: cell-based; design: plaque assay titre, Figure 2c: unit not given beside the values; details: for reduction of viral titre (plaque assay): supernatant of infected Calu-3 cells, vs DMSO-treated infected control; for plaque assay titre, Figure 2c: replicate columns
[7] = test system: SARS-CoV-2 (USA-WA1/2020, lineage A); format: in vivo, K18-hACE2 mice; details: Figure S8 C, tissue plaque assay, individual animals
[8] = test system: SARS-CoV-2 (USA-WA1/2020, lineage A); design: species or system K18-hACE2 mice; details: mouse, in vivo
[9] = individual mice, tissue at death or end-point

T2 sequence (P07711 114-333): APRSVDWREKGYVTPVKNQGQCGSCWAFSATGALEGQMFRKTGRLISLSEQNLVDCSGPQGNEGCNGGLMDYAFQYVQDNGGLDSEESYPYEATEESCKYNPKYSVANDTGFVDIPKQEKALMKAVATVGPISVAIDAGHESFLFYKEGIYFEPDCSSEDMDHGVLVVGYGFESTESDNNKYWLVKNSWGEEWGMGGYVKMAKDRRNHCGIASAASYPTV
T5 sequence (P05981 whole entry): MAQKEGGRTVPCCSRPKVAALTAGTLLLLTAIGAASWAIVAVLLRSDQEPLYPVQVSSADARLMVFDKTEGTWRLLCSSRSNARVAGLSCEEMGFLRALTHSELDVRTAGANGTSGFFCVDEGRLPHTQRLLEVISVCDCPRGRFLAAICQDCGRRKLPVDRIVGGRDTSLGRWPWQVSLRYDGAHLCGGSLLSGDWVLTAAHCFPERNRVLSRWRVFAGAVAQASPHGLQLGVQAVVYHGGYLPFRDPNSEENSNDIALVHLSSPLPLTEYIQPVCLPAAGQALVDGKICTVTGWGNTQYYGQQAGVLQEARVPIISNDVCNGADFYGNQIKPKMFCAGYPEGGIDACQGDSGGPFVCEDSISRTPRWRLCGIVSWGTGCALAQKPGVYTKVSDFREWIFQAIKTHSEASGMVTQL
T1 sequence (P09958 108-794): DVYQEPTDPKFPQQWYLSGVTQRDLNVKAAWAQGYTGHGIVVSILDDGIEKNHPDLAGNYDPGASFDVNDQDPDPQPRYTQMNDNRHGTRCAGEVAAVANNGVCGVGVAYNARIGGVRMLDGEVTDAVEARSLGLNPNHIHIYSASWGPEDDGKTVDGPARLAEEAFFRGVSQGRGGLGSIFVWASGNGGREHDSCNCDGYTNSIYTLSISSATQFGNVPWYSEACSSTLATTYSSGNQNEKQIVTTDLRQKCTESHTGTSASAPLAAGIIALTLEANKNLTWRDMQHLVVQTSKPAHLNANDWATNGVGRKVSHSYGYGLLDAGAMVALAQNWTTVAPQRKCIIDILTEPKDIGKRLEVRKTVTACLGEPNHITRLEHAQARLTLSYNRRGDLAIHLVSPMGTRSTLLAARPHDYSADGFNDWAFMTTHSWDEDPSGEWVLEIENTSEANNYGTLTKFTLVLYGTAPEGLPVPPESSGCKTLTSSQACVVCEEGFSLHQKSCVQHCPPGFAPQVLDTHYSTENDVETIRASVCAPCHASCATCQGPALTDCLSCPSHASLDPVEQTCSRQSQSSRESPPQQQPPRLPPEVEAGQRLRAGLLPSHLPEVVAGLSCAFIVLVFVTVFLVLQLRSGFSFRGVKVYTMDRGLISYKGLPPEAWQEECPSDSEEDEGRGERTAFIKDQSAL
human TMPRSS2, sequence (O15393 whole entry): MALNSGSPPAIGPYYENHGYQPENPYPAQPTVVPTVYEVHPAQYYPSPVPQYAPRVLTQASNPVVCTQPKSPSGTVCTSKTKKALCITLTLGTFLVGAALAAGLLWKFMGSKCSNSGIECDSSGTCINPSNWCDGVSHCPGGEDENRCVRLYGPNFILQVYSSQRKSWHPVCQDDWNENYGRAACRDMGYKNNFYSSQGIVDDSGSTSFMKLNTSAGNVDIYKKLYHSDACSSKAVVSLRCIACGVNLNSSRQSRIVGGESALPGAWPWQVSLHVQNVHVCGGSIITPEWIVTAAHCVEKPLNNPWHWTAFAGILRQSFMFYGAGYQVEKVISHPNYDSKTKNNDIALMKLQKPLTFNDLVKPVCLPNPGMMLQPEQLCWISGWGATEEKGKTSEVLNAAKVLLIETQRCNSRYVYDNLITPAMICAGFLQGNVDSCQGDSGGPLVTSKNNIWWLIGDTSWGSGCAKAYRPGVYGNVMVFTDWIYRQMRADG

N=C(N)NCCCCC(=O)N[C@@H](CCC(=O)O)C(=O)N[C@@H](Cc1ccccc1)C(=O)N[C@@H](CCCNC(=N)N)C(=O)c1nc2ccccc2s1 [Compound N-00438]
pKi (Recombinant human furin): < 5.00
pKi (human cathepsin L): < 5.00
pKi (human thrombin): < 5.00
pKi [1]: 8.92 and 8.99 and 8.96
pKi (Recombinant human hepsin): 9.32 and 9.22 and 9.31
pKi (Recombinant human DESC1): 7.47 and 7.56 and 7.53

CS(=O)(=O)NC(CCC(N)=O)C(=O)NC(Cc1ccccc1)C(=O)NC(CCCNC(=N)N)C(O)c1nc2ccccc2s1 (centres unmarked) [N-0385(OH), Ms-QFR-Kbt(OH)]
inhibition at 0.1 µM (SARS-CoV-2 (VIDO) [2]): < 20%
inhibition of SARS-CoV-2 infection in dose-response ([3]; Calu-3 cells, concentrations up to 1 μM): substantial inhibition was not observed
Nucleocapsid ([3]; Figure 2a, two replicates, DMSO control about 91-94): 67.4057 and 91.7182
dsRNA ([3]; Figure 2a, two replicates, DMSO control about 93-95): 60.8663 and 93.4144
pEC50 ([3]; Severe acute respiratory syndrome coronavirus 2, Calu-3, read-out: SARS-CoV-2 VIDO Nucleocapsid EC50 ± SE): < 6.00
inhibition at 0.1 µM ([3]; Severe acute respiratory syndrome coronavirus 2, Calu-3, read-out: inhibition of SARS-CoV-2 infection): < 23%
Figure 2b dose-response, Mean ([3]; log [C] (nM) 0.20412): 76.2535
Figure 2b dose-response, Mean ([3]; log [C] (nM) 0.90309): 92.6293
Figure 2b dose-response, Mean ([3]; log [C] (nM) 1.60206): 68.5403
Figure 2b dose-response, Mean ([3]; log [C] (nM) 2.30103): 90.4217
Figure 2b dose-response, Mean ([3]; log [C] (nM) 3): 72.2184
Figure 2b dose-response, Mean ([3]; log [C] (nM) -0.49485): 87.0011
Figure 2b dose-response, Mean ([3]; log [C] (nM) -1.19382): 84.82
Brain No. Positive (IHC detections) [4]: 205622 and 308647 and 423604 and 84 and 143563 and 207074 and 97743 and 210 and 4043 and 310256
Brain No. Positive per mm^2 [4]: 4555.9 per mm^2 and 7896.3 per mm^2 and 7494 per mm^2 and 2.578 per mm^2 and 3909.6 per mm^2 and 5209.1 per mm^2 and 2144.6 per mm^2 and 10.67 per mm^2 and 137.97 per mm^2 and 6010.9 per mm^2
Brain Positive % [4]: 45.15% and 78.61% and 74.5% and 0.0256% and 38.77% and 51.89% and 21.4% and 0.1052% and 1.361% and 59.5%
Lung No. Positive (IHC detections) [4]: 39230 and 61582 and 572 and 191 and 315 and 37366 and 98 and 384 and 178
Lung No. Positive per mm^2 [4]: 2703.8 per mm^2 and 1622.2 per mm^2 and 26.11 per mm^2 and 8.074 per mm^2 and 15.79 per mm^2 and 10.94 per mm^2 and 1638.9 per mm^2 and 3.505 per mm^2 and 17.97 per mm^2 and 6.38 per mm^2
Lung Positive % [4]: 26.59% and 15.97% and 0.2589% and 0.0798% and 0.1558% and 0.1086% and 16.31% and 0.0348% and 0.1784% and 0.063%
reduction in TMPRSS2 activity (human TMPRSS2): no significant reduction
Brain lesions (H&E) ([5]; N-0385: surviving mice, day 14): reduced
Perivascular infiltrates in CNS score ([5]; individual mice, most severely affected vessel): 0 and 2 and 1
Alveolar cells score [5, 9]: 0 and 1 ((1) <10% affected) and 2 ((2) 10–25% affected)
Alveolar edema score [5, 9]: 0 and 1 ((1) <10% affected) and 2 ((2) 10–25% affected)
Alveolar fibrin score [5, 9]: 0 and 1 ((1) <10% affected) and 2 ((2) 10–25% affected)
Fibrosis score [5, 9]: 0
Interstitial infiltrates in lung score [5, 9]: 0 and 1 ((1) <10% affected) and 3 ((3) 26–50% affected)
Lymphoid hyperplasia score [5, 9]: 0
Perivascular infiltrate in lung score [5, 9]: 1 ((1) <10% affected) and 3 ((3) 26–50% affected) and 0
Type II pneumocyte hyperplasia score [5, 9]: 0 and 1 ((1) <10% affected) and 3 ((3) 26–50% affected)
reduction of viral titre (plaque assay) (SARS-CoV-2 (VIDO) [6]; 40 nM): did not induce reduction
plaque assay titre, Figure 2c (SARS-CoV-2 (VIDO) [6]; 40 nM): 240000 and 1067000 and 627000 and 715000 and 1050000 and 440000 and 310000 (2×) and 190000 and 70000 and 400000 and 350000 and 264000 and 242000
reduction of viral titre (plaque assay) (SARS-CoV-2 (VIDO) [6]; 200 nM): did not induce reduction
plaque assay titre, Figure 2c (SARS-CoV-2 (VIDO) [6]; 200 nM): 200000 and 150000 (2×) and 30000 and 500000 (4×) and 780000 and 594000 and 286000 and 190000 and 950000
PFU/g ([7]; Females): 15000000 PFU/g and 1441176 PFU/g and 8676471 PFU/g and 0 PFU/g and 2014706 PFU/g
PFU/mL ([7]; Females): 3000000 PFU/mL and 288235 PFU/mL and 1735294 PFU/mL and 0 PFU/mL and 402941 PFU/mL
PFU/g ([7]; Males): 0 PFU/g and 9852941 PFU/g and 720588 PFU/g
PFU/mL ([7]; Males): 0 PFU/mL and 1970588 PFU/mL and 144118 PFU/mL
average weight loss at 6 dpi [8]: 12%
survival to the end-point (14 dpi) [8]: 10%
weight loss at the study end-point [8]: 15%
